Reference: PubChem BioAssay (NCI)
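Dose response: 5 concentrations. Exposure: 48 h. Format: 96-well plates. Endpoint: linear interpolation; highest concentration if not reached. GI50 marks 50% less growth. TGI: total growth inhibition.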

system: HCT-116 colon; assay: DTP human tumour cell line panel, 48 h

SMILES | GI50 [µM] | TGI [µM]
CC(C)=C[C@@H]1C[C@H](C)[C@H]2CC[C@H](C)C3=C2[C@](O)(OC3=O)[C@]1(C)O | > 100 | > 100
CCC[CH2][Sn]([CH2]CCC)([CH2]CCC)[O]C(=O)CC | 0.138 | 0.294
CNC(=S)NC1CCCCC1NC(=S)NC (centres undefined) |  | > 100
CC1OC(n2cc(F)c(=O)[nH]c2=O)C=CC1O (centres undefined) |  | > 100
C=C(C)[C@@]12OC3(/C=C/C=C/CCCCC)O[C@@H]1[C@@H]1[C@@H]4O[C@]4(CO)[C@@H](O)[C@]4(O)C(=O)C(C)=C[C@H]4[C@@]1(O3)[C@H](C)[C@H]2OC(=O)c1ccccc1 | 1.65 | 3.33
C/C(=C\CCc1ccoc1)CC/C=C(\C)CCCC1=CC(=O)OC1 | 4.02 | 18.8
C=C(C=O)[C@@H]1C2OC(=O)C(=C)[C@@H]2CC(O)[C@@]1(C)CC (some centres undefined) |  | 14.5
C=C(CCCCC)CN1CCCC1[C@@](C)(O)CC(=O)OCC (some centres undefined) |  | > 100
O=c1c2ccccc2[se]n1-c1cccnc1 |  | > 100
O=C1c2ccccc2C(=O)C1(Cl)C1(S(=O)(=O)O)c2ccccc2-c2ccccc21 |  | > 100

system: MDA-MB-231 breast; assay: DTP human tumour cell line panel, 48 h

SMILES | GI50 [µM] | TGI [µM]
O=S(=O)([O-])c1ccc2c(c1)-c1nc-2nc2[n-]c(nc3nc(nc4[n-]c(n1)c1ccc(S(=O)(=O)[O-])cc41)-c1cc(S(=O)(=O)[O-])ccc1-3)c1ccc(S(=O)(=O)[O-])cc21.[Cu+2].[Na+] | > 100 | > 100
Cc1ccc(C(SCC(N)C(=O)O)(c2ccccc2)c2ccc(C)cc2)cc1 (centres undefined) | 0.468 | 16.1
COc1cc(Nc2cn[nH]c2-c2ccc(Cl)cc2)cc(OC)c1OC | 6.79 | > 90.3
CNCCNc1c2c(c(NCCNC)c3c(CN(C)C)c[nH]c13)C(=O)c1ccccc1C2=O | 0.486 | 8.31
CC1OC2CC(=O)OC2C2=C1C(=O)c1c(O)cccc1C2=O (centres undefined) | 0.0684 | 0.334
O=C1NC(=Nc2ccccc2)S/C1=C\c1ccc2ncccc2c1 | > 25 | > 25
C/C1=C\CC[C@@]2(C)O[C@@H]2[C@H]2OC(=O)[C@@H](CN(C)C)[C@@H]2CC1 | 14.2 | 34.6
Oc1ccc(Cl)cc1Cc1cc(Cl)cc(Cl)c1O | 7.92 | 48.1
C=C(C=O)C1CCC2(C(=O)O)CCC3(C)C(CCC4C5(C)CCC(O)C(C)(C)C5CCC43C)C12 (centres undefined) | 4.92 | 50.4
COc1ccc(N2C(=O)C(c3ccccc3)(c3ccccc3)C23C(=O)N(C)c2ccccc23)cc1 (centres undefined) | 54 | > 100
CC(C)=C[C@@H]1C[C@H](C)[C@H]2CC[C@H](C)C3=C2[C@](O)(OC3=O)[C@]1(C)O | > 100 | > 100
CCC[CH2][Sn]([CH2]CCC)([CH2]CCC)[O]C(=O)CC | 0.144 | 0.343
C=C(C)[C@@]12OC3(/C=C/C=C/CCCCC)O[C@@H]1[C@@H]1[C@@H]4O[C@]4(CO)[C@@H](O)[C@]4(O)C(=O)C(C)=C[C@H]4[C@@]1(O3)[C@H](C)[C@H]2OC(=O)c1ccccc1 | 0.118 | 2.27
C/C(=C\CCc1ccoc1)CC/C=C(\C)CCCC1=CC(=O)OC1 | 5.97 | 28.9
O=c1c2ccccc2[se]n1-c1cccnc1 |  | 66.6

system: MDA-MB-435; assay: DTP human tumour cell line panel, 48 h

SMILES | GI50 [µM] | TGI [µM]
O=S(=O)([O-])c1ccc2c(c1)-c1nc-2nc2[n-]c(nc3nc(nc4[n-]c(n1)c1ccc(S(=O)(=O)[O-])cc41)-c1cc(S(=O)(=O)[O-])ccc1-3)c1ccc(S(=O)(=O)[O-])cc21.[Cu+2].[Na+] | > 100 | > 100
Cc1ccc(C(SCC(N)C(=O)O)(c2ccccc2)c2ccc(C)cc2)cc1 (centres undefined) | 0.0323 | 0.14
COc1cc(Nc2cn[nH]c2-c2ccc(Cl)cc2)cc(OC)c1OC | 1.26 | 4.24
CNCCNc1c2c(c(NCCNC)c3c(CN(C)C)c[nH]c13)C(=O)c1ccccc1C2=O | 2.5 | 10.7
CC1OC2CC(=O)OC2C2=C1C(=O)c1c(O)cccc1C2=O (centres undefined) | 0.0493 | 0.214
O=C1NC(=Nc2ccccc2)S/C1=C\c1ccc2ncccc2c1 | 0.62 | 1.88
C/C1=C\CC[C@@]2(C)O[C@@H]2[C@H]2OC(=O)[C@@H](CN(C)C)[C@@H]2CC1 | 7.68 | 25.3
Oc1ccc(Cl)cc1Cc1cc(Cl)cc(Cl)c1O | 4.35 | 83.2
C=C(C=O)C1CCC2(C(=O)O)CCC3(C)C(CCC4C5(C)CCC(O)C(C)(C)C5CCC43C)C12 (centres undefined) | 2.74 | 24.3
COc1ccc(N2C(=O)C(c3ccccc3)(c3ccccc3)C23C(=O)N(C)c2ccccc23)cc1 (centres undefined) | > 100 | > 100
CC(C)=C[C@@H]1C[C@H](C)[C@H]2CC[C@H](C)C3=C2[C@](O)(OC3=O)[C@]1(C)O | > 100 | > 100
CCC[CH2][Sn]([CH2]CCC)([CH2]CCC)[O]C(=O)CC | 0.178 | 0.458
C=C(C)[C@@]12OC3(/C=C/C=C/CCCCC)O[C@@H]1[C@@H]1[C@@H]4O[C@]4(CO)[C@@H](O)[C@]4(O)C(=O)C(C)=C[C@H]4[C@@]1(O3)[C@H](C)[C@H]2OC(=O)c1ccccc1 | < 0.01 | 4.56
C/C(=C\CCc1ccoc1)CC/C=C(\C)CCCC1=CC(=O)OC1 | 5.76 | 34.1
O=c1c2ccccc2[se]n1-c1cccnc1 |  | 46.4

system: PC-3 prostate; assay: DTP human tumour cell line panel, 48 h

SMILES | GI50 [µM] | TGI [µM]
O=S(=O)([O-])c1ccc2c(c1)-c1nc-2nc2[n-]c(nc3nc(nc4[n-]c(n1)c1ccc(S(=O)(=O)[O-])cc41)-c1cc(S(=O)(=O)[O-])ccc1-3)c1ccc(S(=O)(=O)[O-])cc21.[Cu+2].[Na+] | 9.44 | > 100
Cc1ccc(C(SCC(N)C(=O)O)(c2ccccc2)c2ccc(C)cc2)cc1 (centres undefined) | 0.314 | 30.4
COc1cc(Nc2cn[nH]c2-c2ccc(Cl)cc2)cc(OC)c1OC | 8.18 | > 64
CNCCNc1c2c(c(NCCNC)c3c(CN(C)C)c[nH]c13)C(=O)c1ccccc1C2=O | 0.969 | 5.64
CC1OC2CC(=O)OC2C2=C1C(=O)c1c(O)cccc1C2=O (centres undefined) | 0.242 | 0.965
O=C1NC(=Nc2ccccc2)S/C1=C\c1ccc2ncccc2c1 | 1.67 | > 25
C/C1=C\CC[C@@]2(C)O[C@@H]2[C@H]2OC(=O)[C@@H](CN(C)C)[C@@H]2CC1 | 14.1 | 33.7
Oc1ccc(Cl)cc1Cc1cc(Cl)cc(Cl)c1O | 3.59 | 15.5
C=C(C=O)C1CCC2(C(=O)O)CCC3(C)C(CCC4C5(C)CCC(O)C(C)(C)C5CCC43C)C12 (centres undefined) | 2.76 | 23.2
COc1ccc(N2C(=O)C(c3ccccc3)(c3ccccc3)C23C(=O)N(C)c2ccccc23)cc1 (centres undefined) | > 100 | > 100
CC(C)=C[C@@H]1C[C@H](C)[C@H]2CC[C@H](C)C3=C2[C@](O)(OC3=O)[C@]1(C)O | > 100 | > 100
